Results from patent US20040142405A1, “Method of detecting drug resistance” (priority 2003, published 2004).
Read-outs that look alike come from different tables or passages of the source.

Columns and labels:
[1] = test system: viral PR from patients' plasma HIV RNA; assay: Four-path impedance analysis (FIG. 5) of RNA extracted from blood samples of AIDS patients treated with saquinavir; assay type: biochemical; conditions: for α = Ret^B(1)/Ret^A(1): CA units, anti-CA; for β = Ret^B(2)/Ret^A(2): MA units, anti-MA, β≈1.0 drug resistant, β<1 drug sensitive
Procedure: Plasma was obtained from consenting donors following removal of blood cells by centrifugation for 5 minutes at 3,000 rpm. The plasma was 3-fold diluted with PBS, and viral particles were peletted by centrifuging the volume for 45 minutes at 45,000 rpm in a Backman centrifuge (SW 50.1 rotor). The viral pellets were suspended in 1 mL TRIzol reagent (Gibco BRL) containing 5-10 μg of tRNA (Sigma) as carrier and RNA was extracted according to the manufacturer's instructions.
All the RNA preparations were translated in vitro using the “Biotin in vitro translation kit” (Roche 1559951) in the absence or presence of Saquinavir (Ro 31-8959). Reactions were performed in 50 μL, according to the manufacturer's instructions, using DEPC-treated water. The PR inhibitor Saquinavir was dissolved in 1M NaCl in the DEPC-treated water, and was added to reaction mixtures before starting the synthesis. The reaction mixtures were incubated for 90 min at 30° C. and the reactions were halted by placing in ice or storage at −75° C. until further use in the electrochemical measurements.
An extracted RNA specimen 100 is subdivided into two samples, A 102 and B 104. While sample A is subjected to in vitro translation in the presence of the PI, sample B is translated in the absence of the PI. Each of the translation mixtures is then further divided into two equal sub-samples, sample A into sub-samples A(1) 106 and A(2) 108, and sample B into sub-samples B(1) 110 and B(2) 112. The sub-samples A(1) and B(1) are subjected to the analysis of the total CA units using anti-CA, according to FIG. 1B, route (ii). The sub-samples A(2) and B(2) utilize the anti-MA antibody to assess content of polyprotein in the respective samples, according to FIG. 1A and FIG. 1B, route (i). Note that the ratio of the interfacial electron transfer resistances generated upon the precipitation of the precipitate (20) in sub-samples A(2) and B(2) reflect the content of polyprotein generated under PR inhibition vs. the unprocessed (=unhydrolyzed) polyprotein in the system.
The ratio of electron transfer resistances of paths A(1) and B(1) should be independent of the PI, and its value should be ≈1. This ratio provides an internal standard for the effectiveness of translations in the entire set of experiments. Thus, the four-path analysis scheme of the mRNA translation processes eliminates the background signal of unprocessed polyproteins in the absence of the inhibitor. The assay also abrogates the difference in the affinities of anti-CA and anti-MA to the respective antigens. Since the original sample is subdivided into equivalent sub-samples prior to translations, the problem of different RNA contents in analysis paths is cancelled out.
The analysis scheme outlined in FIG. 5 was applied to detect drug resistance in AIDS patients, treated with saquinavir. In this process, we expect that the analysis of the CA-units by the anti-CA antibodies will lead to an electron transfer resistance ratio of paths A(1) 106 and B(1) 110 in FIG. 5, that corresponds to α=Ret^B(1)/Ret^A(1)≈1.0 whereas the ratio of electron transfer resistance analyzing the MA-units with the anti-MA antibody of paths B(2) 112 and A(2) 108 in FIG. 5 should reveal the value β=Ret^B(2)/Ret^A(2)≈1.0 for drug resistant patients, and β<1 for drug sensitive patients.

[2] = molecular target: T1, G48V mutated PR (Human immunodeficiency virus type 1 group M subtype B, UniProt P12497, G536V); assay: Four-path impedance analysis (FIG. 5) of proteins translated from RNA of the HIV-1 G48V mutant; assay type: biochemical, HIV-1 (NL4-3)
T1 construct: a virus encoded protease (PR) which is one of the individual proteins making up the uncleaved polyprotein; made in house; host or cells: cell-free in vitro translation (Biotin in vitro translation kit, Roche 1559951) of RNA from the media of cultured cells infected with HIV-1 G48V
Procedure: (§1) A conventional three electrode cell, consisting of the modified Au electrode, a glassy carbon auxiliary electrode isolated by a glass frit, and a saturated calomel electrode (SCE) connected to the working volume with a Luggin capillary, was used for the electrochemical measurements. The cell was positioned in a grounded Faradaic cage. Impedance measurements were performed using an electrochemical impedance analyzer (EG&G, model 1025) and potentiostat (EG&G, model 283) connected to a computer (EG&G Software Power Suite 1.03 and 270 for impedance measurements). All electrochemical measurements were performed in 0.1 M phosphate buffer, pH 7.0, as a background electrolyte solution. Faradaic impedance measurements were performed in the presence of 10 mM K3[Fe(CN)6]/K4Fe(CN)6] (1:1) mixture, as a redox probe. Impedance measurements were performed at a bias potential of 0.17 V versus SCE using alternating voltage, 10 mV, in the frequency range of 100 mHz to 10 kHz. The impedance spectra were plotted in the form of complex plane diagrams (Nyquist plots).
The antibody-functionalized electrode was interacted with varying concentrations of the Gag polyprotein generated in the translation mixture for 60 min. diluted to 1.0 mL in phosphate-buffered saline (PBS) solution, 0.1 M, pH 7.0, at room temperature. After attachment of the respective polyprotein to the sensing interface, the electrode was incubated in the solution of anti-MA or anti-CA (sources were 200-fold diluted) for 30 min at room temperature. After attachment to the respective antibody, the electrode was incubated either in a goat-anti-rabbit-HRP conjugate solution (2.5 μg·mL^−1), for the MA analysis, or in a goat-anti-mouse-HRP conjugate solution (2.5 μg·mL^−1) for the CA analysis, for 30 minutes at room temperature. 4-Chloro-1-naphthol (1) (FIG. 1D) was dissolved initially in ethanol and then the ethanolic stock solution was diluted with 0.1 M phosphate buffer, pH 7.0, to yield the developing solution that included 1×10^−3 M (1) and 2% (v/v) ethanol. […]

[3] = molecular target: protease encoded by the wild-type viral RNA (HIV-1 PR) (Human immunodeficiency virus type 1 group M subtype B, UniProt P04585); assay type: biochemical
Procedure: as §1
The antibody-functionalized electrode was interacted with varying concentrations of the Gag polyprotein generated in the translation mixture for 60 min. diluted to 1.0 mL in phosphate-buffered saline (PBS) solution, 0.1 M, pH 7.0, at room temperature. […]

[4] = molecular target: T2, HIV-1 viral protease (PR) (Human immunodeficiency virus type 1 group M subtype B, UniProt P04585); assay type: biochemical; conditions: for interfacial electron transfer resistance Ret after biocatalyzed precipitation of (20) (curve f): translation in the presence of saquinavir 1×10^−4 M, 10 min precipitation, non-inhibited mixture 2500 Ω
Procedure: as §1
The electrodes were rinsed with water, dried, and soaked in a 10 mM solution of the DSP-active ester in DMSO for 30 min at room temperature. The functionalized electrodes were rinsed with DMSO and water and incubated in a 100 μg·m]L^−1 solution of protein G, for 90 min in a phosphate buffer saline solution, pH=7.4, at room temperature, to couple covalently protein G lysine residues to the functionalized electrodes. The protein G-functionalized electrodes were then allowed to interact with the Fc fragment of the anti-CA-antibody, 1 μg·mL^−1, 30 min at room temperature, to yield the sensing interfaces.
(§2) The antibody-functionalized electrode was interacted with varying concentrations of the Gag polyprotein generated in the translation mixture for 60 min. diluted to 1.0 mL in phosphate-buffered saline (PBS) solution, 0.1 M, pH 7.0, at room temperature. After attachment of the respective polyprotein to the sensing interface, the electrode was incubated in the solution of anti-MA or anti-CA (sources were 200-fold diluted) for 30 min at room temperature. After attachment to the respective antibody, the electrode was incubated either in a goat-anti-rabbit-HRP conjugate solution (2.5 μg·mL^−1), for the MA analysis, or in a goat-anti-mouse-HRP conjugate solution (2.5 μg·mL^−1) for the CA analysis, for 30 minutes at room temperature. 4-Chloro-1-naphthol (1) (FIG. 1D) was dissolved initially in ethanol and then the ethanolic stock solution was diluted with 0.1 M phosphate buffer, pH 7.0, to yield the developing solution that included 1×10^−3 M (1) and 2% (v/v) ethanol. The modified electrodes consisting of the HRP-tagged antibody-functionalized electrodes were incubated in the developing solution of (1) for a fixed and controlled time of 10 minutes at room temperature to stimulate the precipitation of (2) (FIG. 1D).
(§3) After incubation of the respective electrodes in the probe solution, the electrodes were rinsed with 0.1 M phosphate buffer, pH 7.0, and introduced into the electrochemical cell for their analyses by Faradaic impedance spectroscopy. It should be noted that after each step the electrode was rinsed thoroughly with buffer solution, pH 7.0, to eliminate any non-specific adsorbates on the electrode. In the microgravimetric quartz crystal microbalance measurements, the various modification and amplification steps, including the rinsing steps, were performed in the flow cell of the QCM apparatus.
(§4) All the RNA preparations were translated in vitro using the “Biotin in vitro translation kit” (Roche 1559951) in the absence or presence of Saquinavir (Ro 31-8959). Reactions were performed in 50 μL, according to the manufacturer's instructions, using DEPC-treated water. The PR inhibitor Saquinavir was dissolved in 1M NaCl in the DEPC-treated water, and was added to reaction mixtures before starting the synthesis.

[5] = molecular target: viral PR (Human immunodeficiency virus type 1 group M subtype B, UniProt P04585); assay type: biochemical; conditions: RNA of HIV-1 infected cultured cells, increased concentrations of saquinavir, FIG. 8
Procedure: as §2
All the RNA preparations were translated in vitro using the “Biotin in vitro translation kit” (Roche 1559951) in the absence or presence of Saquinavir (Ro 31-8959). […]

[6] = test system: AIDS patients; conditions: cited from earlier work
[7] = molecular target: T2, HIV-1 viral protease (PR); assay type: biochemical
Procedure: as §2, §3, §4

[8] = translation of bacterial RNA in the presence of saquinavir 1×10^−4 M

CC(C)(C)NC(=O)[C@@H]1C[C@@H]2CCCC[C@@H]2CN1C[C@@H](O)[C@H](Cc1ccccc1)NC(=O)[C@H](CC(N)=O)NC(=O)c1ccc2ccccc2n1 [saquinavir]
α = Ret^B(1)/Ret^A(1) ([1]; Patient # 1): 1.17 ± 0.03
β = Ret^B(2)/Ret^A(2) ([1]; Patient # 1): 0.87 ± 0.04
α = Ret^B(1)/Ret^A(1) ([1]; Patient # 2): 1.07 ± 0.03
β = Ret^B(2)/Ret^A(2) ([1]; Patient # 2): 1.1 ± 0.04
α = Ret^B(1)/Ret^A(1) ([1]; Patient # 3): 1.04 ± 0.03
β = Ret^B(2)/Ret^A(2) ([1]; Patient # 3): 0.75 ± 0.04
α = Ret^B(1)/Ret^A(1) ([1]; Patient # 4): 1.10 ± 0.03
β = Ret^B(2)/Ret^A(2) ([1]; Patient # 4): 0.79 ± 0.04
α = Ret^B(1)/Ret^A(1) ([1]; Patient # 5): 1.0 ± 0.03
β = Ret^B(2)/Ret^A(2) ([1]; Patient # 5): 1.07 ± 0.04
effect of the inhibitor on the protease activity [2]: no effect of the inhibitor is observed
interfacial resistance Ret, path A(2) with the inhibitor (curve d) ([2]; identical to path B(2) without inhibitor): ≈ 11 kΩ
ratio Ret^B(2)/Ret^A(2) ([2]; without vs with inhibitor): 1
ratio Ret^B(2)/Ret^A(2) [3]: 0.43
electron transfer resistance Ret, path A(2), anti-MA analysis (curve d) ([3]; wild type virus, saquinavir 1×10^−4 M, non-inhibited path B(2) Ret=6): 14 kω
ΔRet upon precipitation, non-inhibited mixture lower than inhibited translation mixture ([4]; identical quantities of mRNA, absence vs presence of Saquinavir): 4 fold
increase in interfacial electron transfer resistance ΔRet upon the precipitation of (20) ([4]; inhibited translation mixture, non-inhibited mixture ΔRet=500 Ω): ≈ 2000 Ω
interfacial electron transfer resistance Ret after biocatalyzed precipitation of (20) (curve f) [4]: 5000 Ω
interfacial electron transfer resistance Ret after biocatalyzed precipitation of (20) (curve f) ([4]; listed as Saquinavir): ca. 5100 Ω
electron transfer resistance Ret after addition of anti-anti-MA-HRP conjugate (curve e) [4, 8]: 3000 Ω
interfacial electron-transfer resistance Ret after association of anti-MA-Ab (curve d) [4, 8]: 2800 Ω
interfacial electron-transfer resistance after binding of the Gag polyprotein to anti-CA-Ab (curve c) [4, 8]: 2100 Ω
interfacial electron transfer resistance as the concentration of the inhibitor increases [5]: enhanced
clinical condition under treatment ([6]; all other patients (#1, #3, #4), subjective statements of the physicians): balanced conditions
clinical response to treatment ([6]; patients #2 and #5, subjective statements of the physicians): did not react to the treatment
Anti-MA Δf [7]: −80 Hz
Anti-anti MA/HRP Δf [7]: −140 Hz
Precipitation of (2) Δf [7]: −100 Hz
frequency change upon treatment of the surface with the translated proteins [7]: −50 Hz
